Assay results taken from US20210161900A1, “COMPOSITIONS AND METHODS FOR THE TREATMENT OF SENESCENT TUMOR CELLS” (Duke University, priority 2018, published 2021).

Tests used:
NSCLC = settings: monotherapy for NSCLC; cited from earlier work
[1] = test system: THBD in primary human bronchial epithelial (HBE) cells; assay: Gene expression profiling of erlotinib-induced senescent versus proliferating HBE cells; assay type: cell-based
Description: Cell Res, 2018. 28(6): p. 625-643; Xiang, H., et al., UHRF1 is required for basal stem cell proliferation in response to airway injury. Cell Discov, 2017. 3: p. […] Cell Res, 2018. 28(6): p. 625-643).

MDA-MB-231 cells = assay: Cleaved caspase-3 immunoblot in proliferating and palbociclib-induced senescent MDA-MB-231 cells treated with vorapaxar; assay type: cell-based
Method: Proliferating and palbociclib-induced senescent MDA-MB-231 cells were treated with increasing doses of vorapaxar. Following treatment, cells were immunoblotted for cleaved caspase-3.

HCC827 and H1650 cells = assay: Cleaved caspase-3 immunoblot in proliferating or palbociclib-treated senescent NSCLC cells treated with PAR1 inhibitors; assay type: cell-based, human; settings: for caspase-3 cleavage: HCC827 and H1650, palbociclib (0.5 μM, 7 days)-treated senescent cells, increasing doses of PAR1 inhibitor
Method: Because THBD is thought to signal primarily through PAR1, it was first tested whether, like THBD depletion, pharmacological PAR1 inhibition results in senescent cell death. For this, proliferating or palbociclib-treated senescent HCC827 and H1650 cells were treated with increasing doses of vorapaxar or SCH79797 and immunoblotted for cleaved caspase-3.

Question: With `CC(=O)c1c(C)c2cnc(Nc3ccc(N4CCNCC4)cn3)nc2n(C2CCCC2)c1=O` [palbociclib] as the compound, how does the adverse side effects (NSCLC) read?
Answer: neutropenia and leukopenia

Question: For `C#Cc1cccc(Nc2ncnc3cc(OCCOC)c(OCCOC)cc23)c1` [erlotinib], which “THBD gene expression in senescent versus proliferating cells” value [1] is on record?
Answer: four-fold increase

Question: Which “caspase-3 cleavage, senescent cells” value (MDA-MB-231 cells; palbociclib-induced senescent MDA-MB-231, increasing doses of vorapaxar (50 nM-1 μM), 24 h) does the source give for `CCOC(=O)N[C@@H]1CC[C@@H]2[C@@H](C1)C[C@H]1C(=O)O[C@H](C)[C@H]1[C@H]2/C=C/c1ccc(-c2cccc(F)c2)cn1` [vorapaxar] here?
Answer: dose-dependent increase

Question: What about the “caspase-3 cleavage, proliferating cells” value (MDA-MB-231 cells; proliferating MDA-MB-231, increasing doses of vorapaxar) of the same compound?
Answer: minimal increase

Question: What about the caspase-3 cleavage (HCC827 and H1650 cells) of the same compound?
Answer: dose-dependent increase

Question: And the “lowest dose inducing caspase-3 cleavage” value (HCC827 and H1650 cells; combined with palbociclib)?
Answer: 25 nM

Question: With `CC(C)c1ccc(Cn2ccc3c4c(N)nc(NC5CC5)nc4ccc32)cc1` [SCH79797] as the compound, how does the caspase-3 cleavage (HCC827 and H1650 cells) read?
Answer: dose-dependent increase
